Data from PubChem BioAssay AID1199 (EPA DSSTox, 2008).
Active and inactive are the calls of the source.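 The calls were made as follows: active = a tumour-causing dose and a tumour site recorded for mice in at least one sex group; inconclusive = only government mouse studies exist and were judged inadequate; inactive = mouse studies exist but none gave tumours.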

Tested on: mouse carcinogenicity bioassay, TD50 from CPDB
Assay: DSSTox (CPDBAS) Carcinogenic Potency Database Summary Mouse Bioassay Results
Summary of the method: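 Values are TD50 carcinogenic potencies from mouse chronic bioassays, taking the most positive result for each sex-species. Sources are published literature and NCI/NTP studies; target sites reflect author-reported positive findings.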

[1] = TD50_Mouse_Note: only experiment is NCI/NTP bioassay inadequate, TargetSites_Mouse_Female: NTP bioassay inadequate
[2] = TD50_Mouse_Note: TD50 is harmonic mean of more than one positive test, TargetSites_Mouse_Female: liver
[3] = TD50_Mouse_Note: TD50 is harmonic mean of more than one positive test, TargetSites_Mouse_Female: liver, lung
[4] = TD50_Mouse_Note: no positive results, TargetSites_Mouse_Female: no positive results
[5] = TD50_Mouse_Note: TD50 is harmonic mean of more than one positive test, TargetSites_Mouse_Female: stomach
[6] = TargetSites_Mouse_Female: no positive results

Question: How did the outcome [1] turn out when `COc1cc2c(c3c1c(=O)c1ccccc1n3C)C=CC(C)(C)O2` was run?
Answer: ntp bioassay inadequate

Question: For `O=CNNc1nc(-c2ccc([N+](=O)[O-])o2)cs1`, which Potency (TD50_Mouse_Note: TD50 is harmonic mean of more than one positive test, TargetSites_Mouse_Female: hematopoietic system, stomach) is on record?
Answer: 0.0425 mmol/kg/day

Question: `Nc1cc(Cl)c(N)c(Cl)c1` was tested. Which Potency [2] did it give?
Answer: 4.54 mmol/kg/day

Question: How did the Potency turn out when `O=C1c2cccc(O)c2C(=O)c2c(O)cccc21` was run?
Answer: 0.837 mmol/kg/day

Question: `CCCC/C=N/N(C)C=O` was tested. Which Potency [3] did it give?
Answer: 0.0241 mmol/kg/day

Question: Which outcome [4] does the source give for `COP(=S)(OC)Oc1ccc([N+](=O)[O-])cc1` here?
Answer: inactive; no positive results

Question: `O=P(O)(O)O` was tested. Which outcome [4] did it give?
Answer: inactive; no positive results

Question: With `Nc1ccc(Sc2ccc(N)cc2)cc1` as the compound, how does the Potency (TD50_Mouse_Note: TD50 is harmonic mean of more than one positive test, TargetSites_Mouse_Female: liver, thyroid gland) read?
Answer: 0.153 mmol/kg/day

Question: How did the Potency (TargetSites_Mouse_Female: uterus) turn out when `CCCl` was run?
Answer: 28.1 mmol/kg/day

Question: How did the outcome [4] turn out when `CN(C)C=O` was run?
Answer: inactive; no positive results

Question: `N[C@@H](Cc1c[nH]c2ccccc12)C(=O)O` was tested. Which outcome [4] did it give?
Answer: inactive; no positive results

Question: `O=CNc1nc(-c2ccc([N+](=O)[O-])o2)cs1` was tested. Which Potency (TD50_Mouse_Note: TD50 is harmonic mean of more than one positive test, greater than ten-fold variation among TD50 values for positive res, TargetSites_Mouse_Female: hematopoietic system, lung, stomach, urinary bladder) did it give?
Answer: 0.0824 mmol/kg/day

Question: How did the outcome [4] turn out when `C=CCOC(=O)c1ccccc1C(=O)OCC=C` was run?
Answer: inactive; no positive results

Question: With `Nc1cc(Cl)c(-c2cc(Cl)c(N)cc2Cl)cc1Cl` as the compound, how does the outcome [4] read?
Answer: inactive

Question: `CC/C(=C(\c1ccccc1)c1ccc(OCCN(C)C)cc1)c1ccccc1` was tested. Which Potency (TD50_Mouse_Note: TD50 is harmonic mean of more than one positive test, TargetSites_Mouse_Female: ovary) did it give?
Answer: 0.00779 mmol/kg/day

Question: How did the Potency [5] turn out when `NC(=O)CCCCn1ccc(NC(N)=NCC(F)(F)F)n1` was run?
Answer: 1.84 mmol/kg/day

Question: How did the outcome [4] turn out when `CCN(Cc1cccc(S(=O)(=O)O)c1)c1ccc(C(=C2C=CC(=[N+](CC)Cc3cccc(S(=O)(=O)O)c3)C=C2)c2ccc(O)cc2S(=O)(=O)[O-])cc1` was run?
Answer: inactive; no positive results

Question: With `C=CCCl` as the compound, how does the outcome [4] read?
Answer: inactive; no positive results

Question: Which outcome [4] does the source give for `O=S1OCCO1` here?
Answer: inactive

Question: How did the Potency (TargetSites_Mouse_Female: urinary bladder, vascular system) turn out when `Nc1ccc(Oc2ccc(Cl)cc2)cc1` was run?
Answer: 1.58 mmol/kg/day

Question: With `CCCNN` as the compound, how does the Potency (TD50_Mouse_Note: TD50 is harmonic mean of more than one positive test, TargetSites_Mouse_Female: lung) read?
Answer: 0.411 mmol/kg/day

Question: Which Potency (TD50_Mouse_Note: TD50 is harmonic mean of more than one positive test, TargetSites_Mouse_Female: hematopoietic system, liver) does the source give for `Nc1ccc2c(c1)C(=O)c1ccccc1C2=O` here?
Answer: 5.33 mmol/kg/day

Question: `CCO` was tested. Which outcome [4] did it give?
Answer: inactive; no positive results

Question: With `C/C=N/N(C)C=O` as the compound, how does the Potency (TD50_Mouse_Note: TD50 is harmonic mean of more than one positive test, TargetSites_Mouse_Female: clitoral gland, lung, stomach) read?
Answer: 0.0251 mmol/kg/day

Question: `Cc1noc(NS(=O)(=O)c2ccc(N)cc2)c1C` was tested. Which outcome [4] did it give?
Answer: inactive; no positive results

Question: With `CCN(Cc1cccc(S(=O)(=O)[O-])c1)c1ccc(C(=C2C=CC(=[N+](C)C)C=C2)c2ccc(N(CC)Cc3cccc(S(=O)(=O)O)c3)cc2)cc1` as the compound, how does the outcome [4] read?
Answer: inactive; no positive results

Question: `CCN(CC)C(=S)S[Se](SC(=S)N(CC)CC)(SC(=S)N(CC)CC)SC(=S)N(CC)CC` was tested. Which Potency [6] did it give?
Answer: 0.00222 mmol/kg/day

Question: How did the Potency [5] turn out when `O=Cc1ccccc1` was run?
Answer: 14 mmol/kg/day

Question: Which outcome [4] does the source give for `Cc1ccc(C)c(OCCCC(C)(C)C(=O)O)c1` here?
Answer: inactive; no positive results

Question: For `Oc1ccccc1`, which outcome [4] is on record?
Answer: inactive; no positive results

Question: With `ClC#CCl` as the compound, how does the Potency (TD50_Mouse_Note: TD50 is harmonic mean of more than one positive test, TargetSites_Mouse_Female: harderian gland, kidney) read?
Answer: 0.00605 mmol/kg/day

Question: With `Cc1ccc(N=Nc2c(O)ccc3ccccc23)c([N+](=O)[O-])c1` as the compound, how does the Potency [6] read?
Answer: 116 mmol/kg/day

Question: With `CCCCN(N)CCCC` as the compound, how does the Potency (TD50_Mouse_Note: TD50 is harmonic mean of more than one positive test, TargetSites_Mouse_Female: lung, stomach) read?
Answer: 0.313 mmol/kg/day

Question: How did the outcome [4] turn out when `CN1CCC[C@H]1c1cccnc1` was run?
Answer: inactive; no positive results

Question: How did the outcome [4] turn out when `CNC(=O)O/N=C/C(C)(C)SC` was run?
Answer: inactive; no positive results

Question: With `CCCCC/C=N/N(C)C=O` as the compound, how does the Potency [3] read?
Answer: 0.0149 mmol/kg/day

Question: Which outcome [4] does the source give for `CCCNC(=O)NS(=O)(=O)c1ccc(Cl)cc1` here?
Answer: inactive; no positive results

Question: How did the Potency [5] turn out when `OCCBr` was run?
Answer: 0.609 mmol/kg/day

Question: How did the outcome [4] turn out when `O=S1OCC2C(CO1)C1(Cl)C(Cl)=C(Cl)C2(Cl)C1(Cl)Cl` (stereo not drawn) was run?
Answer: inactive; no positive results

Question: How did the Potency (TD50_Mouse_Note: TD50 is harmonic mean of more than one positive test, TargetSites_Mouse_Female: liver, stomach) turn out when `O=C(O)c1cc(Oc2ccc(C(F)(F)F)cc2Cl)ccc1[N+](=O)[O-]` was run?
Answer: 0.39 mmol/kg/day

Question: With `Clc1cccc(-c2ccc(Cl)c(Cl)c2Cl)c1Cl` as the compound, how does the outcome (TD50_Mouse_Note: TD50_Mouse_mmol was not calculated for this mixture, but Activiity Score is assigned value of 50 to indicate active) read?
Answer: active; liver

Question: How did the Potency [2] turn out when `ClC(Cl)=C(Cl)Cl` was run?
Answer: 0.953 mmol/kg/day

Question: `CCn1nc(C)c2c1C(c1ccccc1)=NCC(=O)N2` was tested. Which Potency [2] did it give?
Answer: 0.425 mmol/kg/day

Question: Which outcome [4] does the source give for `O=C(O)Cc1cccc2ccccc12` here?
Answer: inactive; no positive results

Question: With `Nc1ccc([N+](=O)[O-])cc1O` as the compound, how does the outcome [4] read?
Answer: inactive; no positive results

Question: With `COc1ccc(O)c(C(C)(C)C)c1` as the compound, how does the Potency (TD50_Mouse_Note: TD50 is harmonic mean of more than one positive test, no positive results are statistically significant, TargetSites_Mouse_Female: no positive results) read?
Answer: 30.7 mmol/kg/day

Question: Which outcome [1] does the source give for `CC[C@H]1CN2CCc3cc(OC)c(OC)cc3[C@@H]2C[C@@H]1C[C@H]1NCCc2cc(OC)c(OC)cc21` here?
Answer: ntp bioassay inadequate

Question: How did the outcome [4] turn out when `O=C(O)c1ccccc1-c1c2cc(I)c(=O)c(I)c-2oc2c(I)c(O)c(I)cc12` was run?
Answer: inactive; no positive results
